{
  "source": "patent US9645136B2",
  "about": "“Methods of treating a meiotic kinesin-associated disease” (DANA-FARBER CANCER INSTITUTE, INC., priority 2008, dated 2017)",
  "key": {"S2 cells [1]": {"system": "S2 cells", "assay": "Centrosome clustering defects in S2 cells after short drug treatment", "format": "cell-based, Drosophila", "description": "In addition to genes that likely contribute to the bundling and organization of spindle MTs, unexpectedly, genes involved in the organization and regulation of the actin cytoskeleton, such as the formin Form3/INF2 were also identified (Chhabra, E. S. and Higgs, H. N. (2006) J Biol Chem 281:26754-26767). […] Experiments using a brief (2 hr) treatment with small molecules that disrupt the actin cytoskeleton similarly induce multipolar mitoses.\nMore specifically, cells were treated with Latrunculin (40 μM LatA), Cytochalasin D (20 μM) for 2 hours and the percentage of centrosome clustering defects was determined.\nNext, it was determined if cortical contraction is required for centrosome clustering. Cells were exposed, for 2 hours, to soluble tetravalent lectin concanavalin A (Con-A), which crosslinks the plasma membrane and thus globally blocks cortical contraction (Canman, J. C. and Bement, W. M. (1997) J Cell Sci 110 (Pt 16):1907-1917). The percentage of centrosome clustering defects after Con-A treatment was determined.\nLow concentrations of calyculin A (CA) inhibit the myosin light chain phosphatase (MLCP) and promote myosin II activation without altering its distribution (Gupton, S. M. and Waterman-Storer, C. M. (2006) Cell 125:1361-1374). […] Thus, in cells with extra centrosomes, actin and actin-based contractility influence whether mitosis is bipolar or multipolar.\nIt was also determined whether the actin and intrinsic spindle forces act cooperatively to prevent multipolar mitoses. […] To farther evaluate this idea, time-lapse spinning disc microscopy was used to define the trajectory of centrosome movement in Ned-depleted S2 cells. […] Moreover, the bulk of the centrosome movement was directed away from the spindle and towards the cell cortex. […] Thus, cortical forces collaborate with intrinsic spindle bundling forces to organize multiple centrosomes."}, "MDA-231 cells": {"system": "MDA-231 cells", "assay": "Multipolar spindles in MDA-231 cells", "format": "cell-based", "description": "The parallel between Drosophila and mammalian cells extended to the genetic requirements for centrosome clustering. To examine this further, siRNA experiments were performed with mammalian HSET (Ned homolog) and Myo10 genes, as follows. Mixed pools (ON-TARGETplus and SMART pools) of 4 different oligos of siRNAs against human HSET, human Myo10 and mouse Myo10 were purchased from Dharmacon, siRNA against mouse HSET was purchased from Ambion. Non-specific scrambled siRNA was used as control (Ambion). The oligo sequence of the siRNAs are set forth below in Table 2:\nCells were transfected with Lipofectamine RNAiMAX (Invitrogen) with a final siRNA concentration of 50 nM according to the manufacturer's instructions. Cells were analyzed/harvested three days after transfection (unless specified otherwise). FIGS. 5 and 6 show the results of Western blots showing the depletion of HSET (FIG. 5) or Myo10 (FIG. 6) after three days of siRNA in MDA-231 and MCF-7 cells. FIG. 7 is a bar graph showing the percentage of cells with multipolar spindles in MCF-7 or MDA-231 cells upon treatment with siRNA of HSET or Myo10. […] As in S2 cells, Myo10-induced multipolarity is not a consequence of cytokinesis failure.\nSeveral lines of evidence support this hypothesis. First, live-cell imaging was used to correlate interphase cell shape with the pattern of cell division during mitosis. MDA-231 (breast cancer cells containing extra centrosomes) that assumed an elongated or polarized shape in interphase, almost uniformly underwent bipolar divisions. […] Second, in tetraploid BSC-1 cells, whose thick RFs are readily visualized by DIC imaging, it was noted that a strong correlation between the positioning of the RFs and whether cells underwent a bipolar (bipolar distribution of RFs) or multipolar division (isotropic distribution of RFs). Third, RFs accumulate specific proteins, such as the ERM protein ezrin, which are implicated in cortical heterogeneity and thus local force generation on astral MTs. […]"}, "[2]": {"system": "MDA-231, MMEDX 4N and N1E-115", "assay": "Multipolar spindles after transient actin or astral MT disruption, cell lines with multiple centrosomes", "format": "cell-based", "description": "(§1) To determine the effect of transient actin disruption in mammalian cells, the cell lines MCF-7, MDA-231, MMEDX 4N and N1E-115 were treated with DMSO, LatA (5 μM) or Dihydrocytochalasin B (DCB) (10 μM) for 2 hours. The MCF-7 cell line contains 2 centrosomes whereas the other cell lines contain greater than 2 centrosomes. […] These multipolar spindles result from declustering of extra centrosomes and were not due to the splitting/fragmentation of centrioles. Actin presumably influences centrosome positioning via forces on astral MTs."}, "S2 cells [3]": {"system": "S2 cells", "assay": "Live cell imaging of centrosome clustering in S2 cells", "format": "cell-based, Drosophila", "description": "Relative to controls (14.7±6.4 min), there was a 1.5 fold delay in centrosome clustering in 13/15 LatA-treated cells (22.1±12.3 min). […] The cell cycle delay induced by LatA treatment is likely due to activation of the SAC, as evidenced by prominent labeling of kinetochores with BubR1 in LatA-treated cells."}, "MCF-7": {"system": "MCF-7", "assay": "Multipolar spindles in cells with normal centrosome number", "format": "cell-based", "conditions": "cells plated on FN 30 μg/ml", "description": "as §1\nCells were transfected with Lipofectamine RNAiMAX (Invitrogen) with a final siRNA concentration of 50 nM according to the manufacturer's instructions. Cells were analyzed/harvested three days after transfection (unless specified otherwise). FIGS. 5 and 6 show the results of Western blots showing the depletion of HSET (FIG. 5) or Myo10 (FIG. 6) after three days of siRNA in MDA-231 and MCF-7 cells. […]\nSeveral lines of evidence support this hypothesis. […] Second, in tetraploid BSC-1 cells, whose thick RFs are readily visualized by DIC imaging, it was noted that a strong correlation between the positioning of the RFs and whether cells underwent a bipolar (bipolar distribution of RFs) or multipolar division (isotropic distribution of RFs). […]"}, "[4]": {"conditions": "2 hours, LatA 5 μM, DCB 10 μM, vs DMSO"}},
  "data": [
    {"compound": "COC[C@@H]([C@H](O)[C@H](O)C(=O)NCC[C@H](C)c1nc(/C=C/C[C@@H]2O[C@]3(C[C@@H](O)[C@@H]2C)O[C@H]([C@H](C[C@H](O)[C@H](C)[C@H](O)[C@H](C)/C=C(C)/C(C)=C/C=C/C(C)=C\\C#N)OC)[C@H](OP(=O)(O)O)C3(C)C)co1)N(C)C", "note": "[CA, calyculin A]", "values": [
      {"measurement": "centrosome clustering defect induced by Ned RNAi", "setting": "S2 cells [1]; CA treatment of Ned RNAi cells", "result": "partially rescued"},
      {"measurement": "centrosome clustering defects", "setting": "S2 cells [1]; wild type S2 cells, low concentration CA, 15% without", "result": 9, "unit": "%"},
      {"measurement": "FN-induced increase of multipolar spindles", "setting": "MDA-231 cells; CA added to cells plated on FN 30 μg/ml", "result": "reversed"}
    ]},
    {"compound": "C=C1[C@@H](C)[C@H]2[C@H](Cc3ccccc3)NC(=O)[C@]23OC(=O)CC[C@H](O)CCC[C@@H](C)C/C=C/[C@H]3[C@@H]1O", "note": "[Dihydrocytochalasin B]", "values": [
      {"measurement": "frequency of multipolar spindles", "setting": "[2]; [4]", "result": "significant increase"}
    ]},
    {"compound": "C/C1=C/C(=O)O[C@@H]2C[C@@H](CC[C@H](C)/C=C\\C=C\\CC1)O[C@@](O)([C@@H]1CSC(=O)N1)C2", "note": "[LatA, Latrunculin]", "values": [
      {"measurement": "spindle multipolarity", "setting": "S2 cells [1]; LatA treatment in Ned or Bj1/RCC1-depleted cells", "result": "combinatorial increase"},
      {"measurement": "frequency of multipolar spindles", "setting": "[2]; [4]", "result": "significant increase"},
      {"measurement": "delay in centrosome clustering relative to controls", "setting": "S2 cells [3]; 13/15 LatA-treated cells", "result": 1.5, "unit": "fold"},
      {"measurement": "time of centrosome clustering", "setting": "S2 cells [3]; 13/15 LatA-treated cells, controls 14.7±6.4 min", "result": "22.1 ± 12.3", "unit": "min"},
      {"measurement": "cells that completely failed to cluster extra centrosomes", "setting": "S2 cells [3]; LatA-treated cells", "result": "2/15"}
    ]},
    {"compound": "CC(C)(C)n1nc(-c2ccc(Cl)cc2)c2c(N)ncnc21", "note": "[PP2]", "values": [
      {"measurement": "multipolar spindles", "setting": "MDA-231 cells; src kinase inhibitor PP2", "result": "induced multipolar spindles"}
    ]},
    {"compound": "COC(=O)Nc1nc2ccc(C(=O)c3cccs3)cc2[nH]1", "note": "[nocodazole]", "values": [
      {"measurement": "frequency of multipolar spindles", "setting": "[2]; low dose nocodazole, cells with extra centrosomes", "result": "increased the frequency of multipolar spindles"}
    ]},
    {"compound": "concanavalin A [Con-A]", "values": [
      {"measurement": "centrosome clustering defects / multipolar mitoses", "setting": "S2 cells [1]; 2 hours treatment", "result": "induced centrosome clustering defects"}
    ]},
    {"compound": "fibronectin [FN]", "values": [
      {"measurement": "frequency of multipolar spindles", "setting": "MDA-231 cells; cells plated on FN 30 μg/ml", "result": "increased the frequency of multipolar spindles"},
      {"measurement": "frequency of multipolar spindles", "setting": "MCF-7", "result": "not in MCF-7 cells"}
    ]}
  ]
}
